The values that follow come from US20250032385A1, “FUNCTIONAL COMPOSITION FOR ALOPECIA COMPRISING CENTIPEDA MINIMA-DERIVED EXTRACT” (priority 2021, published 2025).

In data set [1] the test system is mouse macrophage RAW 264.7 cells. As to conditions: 24 hours; for Cell viability compared with positive control group (CTL): 10 μg/mL; for Cell viability as the concentration increased (cytotoxicity): 1.25, 2.5, 5 and 10 μg/ml; for Concentration at which the cell viability was the highest: tested 1.25-10 μg/ml. Here is the method: In addition, for comparison, an NO production inhibition measurement experiment and a cell viability measurement experiment were also conducted on the synthetic anti-inflammatory agent dexamethasone.
The experiments were conducted using mouse macrophage RAW 264.7 cells as an inflammatory model. RAW 264.7 cells were cultured in a 100 mm cell culture dish with DMEM containing 10% fetal bovine serum and 1% penicillin in a 5% CO2 incubator. Cells that reached confluence were detached using a scraper and subcultured.
Specifically, for the experiment on cell viability, RAW 264.7 cells were dispensed on a 60-mm plate at a density of 2×10^6 cells/dish, and attached to the plate for 24 hours. Then, the cells were treated with fresh media containing each component at concentrations of 1.25, 2.5, 5 and 10 μg/ml and cultured for 24 hours. The number of viable cells was counted by measuring the dehydrogenase present in the mitochondria within the cultured cells. EZ-CYTOX reagent (EZ-1000, Daeilab) was used, and based on the absorbance measured at 450 nm, the cell viability for each concentration was calculated according to the following equation: Cell viability=(absorbance of CMX-treated group/absorbance of untreated group)×100.

Data set [2] has the same test system. The format is cell-based. As to conditions: for NO production as the concentration increased: 100 ng/ml LPS, 1.25, 2.5, 5 and 10 μg/ml; for NO production as the concentration increased / Concentration at which the production of NO was the lowest: 24 hours; for Concentration at which the production of NO was the lowest: tested 1.25-10 μg/ml; for Effect relative to the same amount Brevilin-A (potency value of inflammation inhibition rate): from NO production potency formulas, FIG. 12. On the procedure:
The amount of NO produced by the cultured RAW 264.7 cells and present in the culture medium was measured using a NO detection kit (cat. No. 21021, Intron) based on the Griess reaction. 100 μl of the culture medium estimated to contain NO was dispensed into 96-well plates, and then 50 μl of N1 buffer (sulfanilamide) was added thereto and reacted at room temperature for 10 minutes. Next, 50 μl of N2 buffer (naphthylethylenediamine) was added thereto and reacted at room temperature for 10 minutes, and then the absorbance was measured at 540 nm. The amount of NO produced was determined using a standard calibration curve obtained using a nitrite standard. In addition, a positive control group (CTL) was treated with only LPS and fresh medium not containing any of the components, and a negative control group was treated with only 100 ng/ml LPS. The measurement results are presented as the average value of three repeated experiments.

Take `CC(C)C(=O)O[C@H]1[C@@H]2[C@H](C)C(=O)O[C@@H]2C[C@@H](C)[C@@H]2C=CC(=O)[C@]21C` [Arnicolide C]: in data set [1], the “Cell viability compared with positive control group (CTL)” value is “difference in cell viability from the positive control group (CTL) was significantly small” and the “Cell viability as the concentration increased (cytotoxicity)” value is reported as “no significant change”. In data set [2], the “NO production as the concentration increased” value is recorded as “decreased” and the “Effect relative to the same amount Brevilin-A (potency value of inflammation inhibition rate)” value came to 0.7. Further, the “Concentration at which the production of NO was the lowest” value (shortened to “Concentration … of NO was the lowest”) in data set [2] (100 ng/ml LPS) came to 10 µg/mL.

With `C=C(C)C(=O)O[C@H]1[C@@H]2[C@H](C)C(=O)O[C@@H]2C[C@@H](C)[C@@H]2C=CC(=O)[C@]21C` [Arnicolide D], in data set [1], the “Cell viability as the concentration increased (cytotoxicity)” value is given as “no significant change” and the “Concentration at which the cell viability was the highest” value came to 5 µg/mL. Further, in data set [2], the “NO production as the concentration increased” value is recorded as “decreased” and the “Effect relative to the same amount Brevilin-A (potency value of inflammation inhibition rate)” value turned out to be 1.5. In addition, the “NO production compared with positive control group (CTL)” value in data set [2] (5 μg/mL, 100 ng/ml LPS) is on record as “lower than that in the positive control group (CTL)”.

With `C/C=C(/C)C(=O)O[C@H]1[C@@H]2[C@H](C)C(=O)O[C@@H]2C[C@@H](C)[C@@H]2C=CC(=O)[C@]21C` [Brevilin A], in data set [1], the “Cell viability as the concentration increased (cytotoxicity)” value is on record as “no significant change” and the “Concentration at which the cell viability was the highest” value turned out to be 5 µg/mL. Besides, in data set [2], the “NO production as the concentration increased” value was “decreased” and the “Effect relative to the same amount Brevilin-A (potency value of inflammation inhibition rate)” value is on record as 1.0. In addition, the “Concentration … of NO was the lowest” value in data set [2] (100 ng/ml LPS) stood at 5 µg/mL.

On to `C/C=C(\C)C(=O)O[C@H]1[C@@H]2[C@H](C)C(=O)O[C@@H]2C[C@@H](C)[C@@H]2C=CC(=O)[C@]21C` [Microhelenin C], for which, in data set [1], the “Cell viability compared with positive control group (CTL)” value is listed as “somewhat higher than that in the positive control group (CTL)” and the “Cell viability as the concentration increased (cytotoxicity)” value is reported as “no significant change”. For the same compound, in data set [2], the “NO production as the concentration increased” value is “decreased” and the “Effect relative to the same amount Brevilin-A (potency value of inflammation inhibition rate)” value came out at 0.8. Moreover, in data set [2] (100 ng/ml LPS), the “Concentration … of NO was the lowest” value stood at 10 µg/mL.
